Data reported in ChEMBL document CHEMBL5120919, “Micrococcin P2 Targets Clostridioides difficile” (J Nat Prod, 2022).
Values after ≈ are worked out from the molar mass of the structure shown. Active and inactive are the calls of the source. No cut-off for these calls is given here.

Key:
Clostridioides difficile [1] = assay: Antibacterial activity against Clostridioides difficile RT015/ST35 clinical isolate expressing A+B+ toxin assessed as inhibition of bacterial growth incubated for 24 hrs by CLSI based agar dilution method; type: functional
[2] = MRT in Sprague-Dawley rat at 2 mg/kg, iv measured up to 8 hrs by LC-MS/MS analysis; type: ADME, organism-based; settings: in vivo
Clostridioides difficile [3] = assay: Antibacterial activity against Clostridioides difficile RT002/ST8 clinical isolate expressing A+B+ toxin assessed as inhibition of bacterial growth incubated for 24 hrs by CLSI based agar dilution method; type: functional
[4] = Half life in Sprague-Dawley rat at 10 mg/kg, po measured up to 8 hrs by LC-MS/MS analysis; type: ADME, organism-based; settings: in vivo, BLD = below limit of detection
[5] = Clearance in Sprague-Dawley rat at 10 mg/kg, po measured up to 8 hrs by LC-MS/MS analysis; type: ADME, organism-based; settings: in vivo, BLD = below limit of detection
Clostridioides difficile [6] = assay: Antibacterial activity against Clostridioides difficile RT001/ST3 clinical isolate expressing A+B+ toxin assessed as inhibition of bacterial growth incubated for 24 hrs by CLSI based agar dilution method; type: functional
[7] = AUClast in Sprague-Dawley rat at 2 mg/kg, iv measured up to 8 hrs by LC-MS/MS analysis; type: ADME, organism-based; design: time < 8 hrs, dose 2 mg/kg, route iv; settings: in vivo
SH-SY5Y = assay: Cytotoxicity against human SH-SY5Y cells assessed as reduction in cell viability at 40 uM incubated for 48 hrs by CCK-8 assay; type: toxicity, cell-based
RAW264.7 [8] = assay: Antiinflammatory activity in mouse RAW264.7 cells assessed as decrease in LPS induced IL-1beta expression in supernatant at 5 to 40 uM measured after 24 hrs by ELISA; type: functional, cell-based; settings: dose 5-40 µM
Clostridioides difficile [9] = assay: Antibacterial activity against Clostridioides difficile RT017/ST37 clinical isolate expressing A-B+ toxin assessed as inhibition of bacterial growth incubated for 24 hrs by CLSI based agar dilution method; type: functional
RAW264.7 [10] = assay: Antiinflammatory activity in mouse RAW264.7 cells assessed as decrease in LPS induced IL6 expression in supernatant at 5 to 40 uM measured after 24 hrs by ELISA; type: functional, cell-based; settings: dose 5-40 µM
Clostridioides difficile [11] = assay: Antibacterial activity against Clostridioides difficile RT018/ST17 clinical isolate expressing A+B+ toxin assessed as inhibition of bacterial growth incubated for 24 hrs by CLSI based agar dilution method; type: functional
Clostridioides difficile [12] = assay: Antibacterial activity against Clostridioides difficile RT027 infected in DSS-induced IBD C57BL/6 mouse model assessed as survival rate at 30 mg/kg, po administered once daily for 5 days; type: functional; settings: time 5 day
Clostridioides difficile [13] = assay: Antibacterial activity against Clostridioides difficile RT014/ST14 clinical isolate expressing A+B+ toxin assessed as inhibition of bacterial growth incubated for 24 hrs by CLSI based agar dilution method; type: functional
Clostridioides difficile [14] = assay: Antibacterial activity against Clostridioides difficile RT027 assessed as regrowth of bacteria at 0.5 times MIC measured after 6 hrs by CLSI based time kill curve assay; type: functional, organism-based
[15] = Volume of distribution at steady state in Sprague-Dawley rat at 2 mg/kg, iv measured up to 8 hrs by LC-MS/MS analysis; type: ADME, organism-based; settings: in vivo, read-out: Vdss
[16] = Clearance in Sprague-Dawley rat at 2 mg/kg, iv measured up to 8 hrs by LC-MS/MS analysis; type: ADME, organism-based; settings: in vivo
[17] = MRT in Sprague-Dawley rat at 10 mg/kg, po measured up to 8 hrs by LC-MS/MS analysis; type: ADME, organism-based; settings: in vivo, BLD = below limit of detection
Clostridioides difficile [18] = assay: Antibacterial activity against Clostridioides difficile RT027/ST1 clinical isolate expressing A+B+CDT+ toxin assessed as inhibition of bacterial growth incubated for 24 hrs by CLSI based agar dilution method; type: functional
Clostridioides difficile [19] = assay: Antibacterial activity against Clostridioides difficile RT012/ST54 clinical isolate expressing A+B+ toxin assessed as inhibition of bacterial growth incubated for 24 hrs by CLSI based agar dilution method; type: functional
Clostridioides difficile [20] = assay: Antibacterial activity against Clostridioides difficile RT027 assessed as reduction in bacterial count at 1 to 4 times MIC measured after 24 hrs by CLSI based time kill curve assay; type: functional
Clostridioides difficile [21] = assay: Antibacterial activity against Clostridioides difficile RT078/ST11 clinical isolate expressing A+B+CDT+ toxin assessed as inhibition of bacterial growth incubated for 24 hrs by CLSI based agar dilution method; type: functional
[22] = Half life in Sprague-Dawley rat at 2 mg/kg, iv measured up to 8 hrs by LC-MS/MS analysis; type: ADME, organism-based; settings: in vivo
Clostridioides difficile [23] = assay: Antibacterial activity against Clostridioides difficile RT130/ST5 clinical isolate expressing A+B+CDT+ toxin assessed as inhibition of bacterial growth incubated for 24 hrs by CLSI based agar dilution method; type: functional
Clostridioides difficile [24] = assay: Antibacterial activity against Clostridioides difficile RT293/ST129 clinical isolate expressing A+B+ toxin assessed as inhibition of bacterial growth incubated for 24 hrs by CLSI based agar dilution method; type: functional
[25] = Volume of distribution at steady state in Sprague-Dawley rat at 10 mg/kg, po measured up to 8 hrs by LC-MS/MS analysis; type: ADME, organism-based; settings: in vivo, BLD = below limit of detection
Clostridioides difficile [26] = assay: Antibacterial activity against Clostridioides difficile ST221 clinical isolate expressing A+B+CDT+ toxin assessed as inhibition of bacterial growth incubated for 24 hrs by CLSI based agar dilution method; type: functional
HEK-293T = assay: Cytotoxicity against HEK293T cells assessed as reduction in cell viability at 40 uM incubated for 48 hrs by CCK-8 assay; type: toxicity, cell-based; settings: human
Clostridioides difficile [27] = assay: Antibacterial activity against Clostridioides difficile RT027 assessed as reduction in bacterial count at 5 ug/ml measured after 24 hrs by CLSI based time kill curve assay; type: functional; settings: dose 5 µg/ml

SMILES | MIC (Clostridioides difficile [1]) [µg/mL] | MIC (Clostridioides difficile [3]) [µg/mL] | MIC (Clostridioides difficile [6]) [µg/mL] | MIC (Clostridioides difficile [9]) [µg/mL] | MIC (Clostridioides difficile [11]) [µg/mL] | MIC (Clostridioides difficile [13]) [µg/mL] | MIC (Clostridioides difficile [18]) [µg/mL] | MIC (Clostridioides difficile [19]) [µg/mL] | MIC (Clostridioides difficile [21]) [µg/mL] | MIC (Clostridioides difficile [23]) [µg/mL] | MIC (Clostridioides difficile [24]) [µg/mL] | MIC (Clostridioides difficile [26]) [µg/mL] | also measured
C/C=C(\NC(=O)c1csc(-c2csc(-c3ccc4c(n3)-c3csc(n3)[C@H]([C@@H](C)O)NC(=O)c3csc(n3)[C@H](C(C)C)NC(=O)c3csc(n3)/C(=C/C)NC(=O)[C@H]([C@@H](C)O)NC(=O)c3csc-4n3)n2)n1)C(=O)NCC(C)=O | 1 (≈ 0.875 µM) | 1 (≈ 0.875 µM) | 2 (≈ 1.75 µM) | 1 (≈ 0.875 µM) | 1 (≈ 0.875 µM) | 1 (≈ 0.875 µM) | 1 (≈ 0.875 µM) | 2 (≈ 1.75 µM) | 1 (≈ 0.875 µM) | 1 (≈ 0.875 µM) | 1 (≈ 0.875 µM) | 2 (≈ 1.75 µM) | MRT [2]: 24 min; t1/2 [4]: Bld; CL [5]: Bld; AUC(0-t) at 8 h [7]: 374 ng·h/mL; Activity (SH-SY5Y): Non-Toxic; Activity (RAW264.7 [8]): Active; Activity (RAW264.7 [10]): Active; Activity (Clostridioides difficile [12]): 100%; Activity (Clostridioides difficile [14]): Active; Vd [15]: 2.1 L/kg; clearance [16]: 88.9 mL/min/kg; MRT [17]: Bld; Activity (Clostridioides difficile [20]): 2.5 log10CFU; half-life [22]: 48 min; Vdss [25]: Bld; Activity (HEK-293T): Non-Toxic
CN[C@H](CC(C)C)C(=O)N[C@H]1C(=O)N[C@@H](CC(N)=O)C(=O)N[C@H]2C(=O)N[C@H]3C(=O)N[C@H](C(=O)N[C@H](C(=O)O)c4cc(O)cc(O)c4-c4cc3ccc4O)[C@H](O)c3ccc(c(Cl)c3)Oc3cc2cc(c3O[C@@H]2O[C@H](CO)[C@@H](O)[C@H](O)[C@H]2O[C@H]2C[C@](C)(N)[C@H](O)[C@H](C)O2)Oc2ccc(cc2Cl)[C@H]1O [VANCOMYCIN] | 1 (≈ 0.69 µM) | 1 (≈ 0.69 µM) | 1 (≈ 0.69 µM) | 0.5 (≈ 0.345 µM) | 0.5 (≈ 0.345 µM) | 1 (≈ 0.69 µM) | 0.5 (≈ 0.345 µM) | 1 (≈ 0.69 µM) | 1 (≈ 0.69 µM) | 0.5 (≈ 0.345 µM) | 1 (≈ 0.69 µM) | 1 (≈ 0.69 µM) | Activity (Clostridioides difficile [27]): 1.5 log10CFU
